According to ChEMBL document CHEMBL5338747, “Discovery of Quaternized Pyridine-Thiazole-Pleuromutilin Derivatives with Broad-Spectrum Antibacterial and Potent Anti-MRSA Activity” (J Med Chem, 2023):
The source made the active and inactive calls. No cut-off for these calls is given here.

What was measured:
Staphylococcus aureus [1] = experiment: Antibacterial activity against […] assessed as inhibition of bacterial growth incubated for 24 hrs by broth microdilution method; type: functional; settings: ATCC 29213
Staphylococcus aureus [2] = experiment: Antibacterial activity against methicillin-resistant Staphylococcus aureus ATCC 43300 assessed as inhibition of bacterial growth incubated for 24 hrs by broth microdilution method; type: functional
[3] = system: Mycoplasmoides pneumoniae; experiment: Anti-mycoplasma activity against Mycoplasma pneumoniae M129 ATCC15531 assessed as inhibition of mycoplasma growth measured after 7 days by broth microdilution method; type: functional; settings: M129 ATCC15531, 168 h, time 7 day
Staphylococcus aureus [4] = experiment: Antibacterial activity against methicillin-resistant Staphylococcus aureus 575 assessed as inhibition of bacterial growth incubated for 24 hrs by broth microdilution method; type: functional
[5] = system: Mycoplasmoides gallisepticum; experiment: Anti-mycoplasma activity against Mycoplasma gallisepticum R NCTC10115 assessed as inhibition of mycoplasma growth measured after 7 days by broth microdilution method; type: functional; settings: R NCTC10115, 168 h, time 7 day
Staphylococcus aureus [6] = experiment: Bactericidal activity against methicillin-resistant Staphylococcus aureus ATCC 33591 assessed as reduction in bacterial colonies formation at 2XMIC incubated for 12 hrs in MHB followed by culturing on agar plate for 24 hrs by time-kill kinetics based analysis; type: functional; design: scale not given: the % may be the effect or the level left; settings: time 36 hrs
Cell membrane [7] = experiment: Disruption of bacterial cell membrane in methicillin-resistant Staphylococcus aureus ATCC 33591 assessed as increase in red fluorescence intensity at 4XMIC incubated for 2 hrs by MycoLightGreen1198/PI staining based confocal laser scanning microscopy; type: subcellular
[8] = AUC(0 to t) in Sprague-Dawley rat at 1 mg/kg, iv by LC-MS analysis; type: ADME, organism-based; design: dose 1 mg/kg, route iv; settings: in vivo
[9] = system: Mycoplasmoides gallisepticum; experiment: Potency index, ratio of tiamulin MIC to test compound MIC against anti-mycoplasma activity against Mycoplasma gallisepticum R NCTC10115; type: functional
Cell membrane [10] = experiment: Disruption of bacterial cell membrane in Escherichia coli ATCC 25922 assessed as increase in number of surface folds and atrophy at MIC incubated for 4 hrs by FESEM analysis
Enterococcus = experiment: Antibacterial activity against vancomycin-resistant Enterococcus 80 assessed as inhibition of bacterial growth incubated for 24 hrs by broth microdilution method; type: functional
Klebsiella pneumoniae = experiment: Antibacterial activity against multidrug-resistant Klebsiella pneumoniae 893 assessed as inhibition of bacterial growth incubated for 24 hrs by broth microdilution method; type: functional
[11] = Cmax in Sprague-Dawley rat at 1 mg/kg, iv by LC-MS analysis; type: ADME, organism-based; design: dose 1 mg/kg, route iv; settings: in vivo
Escherichia coli [12] = experiment: Antibacterial activity against Escherichia coli ATCC 25922 assessed as inhibition of bacterial growth incubated for 24 hrs by broth microdilution method; type: functional
Cell membrane [13] = experiment: Disruption of bacterial cell membrane in Escherichia coli ATCC 25922 incubated for 4 hrs by FESEM analysis; type: subcellular
Cell membrane [14] = experiment: Disruption of bacterial cell membrane in methicillin-resistant Staphylococcus aureus ATCC 33591 assessed as increase in fluorescence intensity at 8XMIC measured within 3 mins by DiBAC4(3) dye based fluorescence analysis relative to control; type: subcellular
Cell membrane [15] = experiment: Disruption of bacterial cell membrane in methicillin-resistant Staphylococcus aureus ATCC 33591 assessed as increase in number of surface folds and atrophy at MIC incubated for 4 hrs by FESEM analysis; type: subcellular
Mycoplasmopsis synoviae [16] = experiment: Anti-mycoplasma activity against Mycoplasma synoviae WVU1853 NCTC10124 assessed as inhibition of mycoplasma growth measured after 7 days by broth microdilution method; type: functional; settings: WVU1853 NCTC10124, 168 h, time 7 day
Pseudomonas aeruginosa = experiment: Antibacterial activity against multidrug-resistant Pseudomonas aeruginosa 126 assessed as inhibition of bacterial growth incubated for 24 hrs by broth microdilution method; type: functional
[17] = Half-life in Sprague-Dawley rat at 1 mg/kg, iv by LC-MS analysis; type: ADME, organism-based; settings: in vivo
Escherichia coli [18] = experiment: Disruption of biofilm formation in Escherichia coli ATCC 25922 assessed as inhibition of biofilm formation at MIC measured after 24 hrs by crystal violet staining based analysis; type: functional
Staphylococcus aureus [19] = experiment: Bactericidal activity against methicillin-resistant Staphylococcus aureus ATCC 33591 assessed as reduction in bacterial colonies formation at 4XMIC incubated for 8 hrs in MHB followed by culturing on agar plate for 24 hrs by time-kill kinetics based analysis; type: functional; design: scale not given: the % may be the effect or the level left; settings: time 32 hrs
Escherichia coli [20] = experiment: Bactericidal activity against Escherichia coli ATCC 25922 assessed as reduction in bacterial colonies formation at MIC incubated for 24 hrs in MHB followed by culturing on agar plate for 24 hrs by time-kill kinetics based analysis; type: functional; settings: time 48 hrs
Mycoplasma genitalium = experiment: Anti-mycoplasma activity against Mycoplasma genitalium G37 ATCC33530 assessed as inhibition of mycoplasma growth measured after 7 days by broth microdilution method; type: functional; settings: Mycoplasmoides genitalium, G37 ATCC33530, 168 h; time 7 day
Staphylococcus aureus [21] = experiment: Antibacterial activity against methicillin-resistant Staphylococcus aureus ATCC 33591 infected in Kunming mouse assessed as reduction in inflammatory cell infiltration in lungs at 3 to 10 mg/kg, ip for 2 days starting from 1 hr post-infection by hematoxylin-eosin staining based analysis; type: functional, organism-based; settings: dose 3-10 mg/kg, time 2.0 day
[22] = system: Mesomycoplasma hyopneumoniae; experiment: Anti-mycoplasma activity against Mycoplasma hyopneumoniae J NCTC10110 assessed as inhibition of mycoplasma growth measured after 7 days by broth microdilution method; type: functional; settings: J NCTC10110, 168 h, time 7 day
Cell membrane [23] = experiment: Disruption of bacterial cell membrane in methicillin-resistant Staphylococcus aureus ATCC 33591 assessed as increase in fluorescence intensity by DiBAC4(3) dye based fluorescence analysis; type: subcellular
Mesomycoplasma hyorhinis = experiment: Anti-mycoplasma activity against Mycoplasma hyorhinis BTS-7 NCTC10130 assessed as inhibition of mycoplasma growth measured after 7 days by broth microdilution method; type: functional; settings: BTS-7 NCTC10130, 168 h, time 7 day
Staphylococcus aureus [24] = experiment: Disruption of biofilm formation in methicillin-resistant Staphylococcus aureus ATCC 33591 assessed as inhibition of biofilm formation at 4XMIC measured after 24 hrs by crystal violet staining based analysis; type: functional
[25] = Aqueous solubility of the compound in physiological saline measured after 12 hrs by UV spectrophotometric analysis; type: physicochemical
Staphylococcus aureus [26] = experiment: Antibacterial activity against methicillin-resistant Staphylococcus aureus ATCC 33591 infected in Kunming mouse assessed as reduction in bacterial load in kidney at 5 to 10 mg/kg, ip for 2 days starting from 1 hr post-infection by hematoxylin-eosin staining based analysis; type: functional, organism-based; settings: dose 5-10 mg/kg, time 2.0 day
Staphylococcus aureus [27] = experiment: Antibacterial activity against methicillin-resistant Staphylococcus aureus 222 assessed as inhibition of bacterial growth incubated for 24 hrs by broth microdilution method; type: functional
Acinetobacter baumannii = experiment: Antibacterial activity against carbapenem-resistant Acinetobacter baumannii 882 assessed as inhibition of bacterial growth incubated for 24 hrs by broth microdilution method; type: functional
[28] = MRT in Sprague-Dawley rat at 1 mg/kg, iv by LC-MS analysis; type: ADME, organism-based; settings: in vivo
[29] = Clearance in Sprague-Dawley rat at 1 mg/kg, iv by LC-MS analysis; type: ADME, organism-based; settings: in vivo
Mycoplasmopsis synoviae [30] = experiment: Potency index, ratio of tiamulin MIC to test compound MIC against anti-mycoplasma activity against Mycoplasma synoviae WVU1853 NCTC10124; type: functional

Structure (SMILES): C=C[C@]1(C)C[C@@H](OC(=O)CSc2nc(-c3cc[n+](Cc4ccc(C)cc4)cc3)cs2)[C@]2(C)[C@H](C)CC[C@]3(CCC(=O)[C@H]32)[C@@H](C)[C@@H]1O.[Br-]
- MIC (Staphylococcus aureus [1]): 0.062 µg/mL
- MIC (Staphylococcus aureus [2]): 0.5 µg/mL
- MIC [3]: 0.03 µg/mL
- MIC (Staphylococcus aureus [4]): 8 µg/mL
- MIC [5]: 0.004 µg/mL
- Activity (Staphylococcus aureus [6]): 100%
- Activity (Cell membrane [7]): 100%
- AUC(0-t) [8]: 539 ng·h/mL
- Ratio [9]: 10
- Activity (Cell membrane [10]): Active
- MIC (Enterococcus): 2 µg/mL
- MIC (Klebsiella pneumoniae): 16 µg/mL
- Cmax [11]: 9670 ng/mL
- MIC (Escherichia coli [12]): 0.062 µg/mL
- Activity (Cell membrane [13]): Dose-Dependent Effect
- fold change (FC) (Cell membrane [14]): 6
- Activity (Cell membrane [15]): Active
- MIC (Mycoplasmopsis synoviae [16]): 0.015 µg/mL
- MIC (Pseudomonas aeruginosa): 64 µg/mL
- half-life [17]: 43.8 min
- inhibition (INH) (Escherichia coli [18]): 59.04%
- Activity (Staphylococcus aureus [19]): 100%
- Activity (Escherichia coli [20]): 6.98 log10CFU/ml
- MIC (Mycoplasma genitalium): 0.015 µg/mL
- Activity (Staphylococcus aureus [21]): Active
- MIC [22]: 0.004 µg/mL
- Activity (Cell membrane [23]): Dose-Dependent Effect
- MIC (Mesomycoplasma hyorhinis): 0.008 µg/mL
- inhibition (INH) (Staphylococcus aureus [24]): 86.43%
- solubility at 12 h [25]: 862 µM
- Activity (Staphylococcus aureus [26]): Active
- MIC (Staphylococcus aureus [27]): 1 µg/mL
- MIC (Acinetobacter baumannii): 8 µg/mL
- MRT [28]: 34.8 min
- clearance [29]: 31.7 mL/min/kg
- Ratio (Mycoplasmopsis synoviae [30]): 10
